Measurements as given in article PMC11243693, “Synthesis and Biological Evaluation of New Compounds with Nitroimidazole Moiety” (Molecules, 2024).
In brackets after ≈: the same amount, converted by molar mass.

Legend:
Type in all cases: cell-based
[1] = tested on: Staphylococcus aureus ATCC 25923; assay: Broth microdilution, S. aureus ATCC 25923; conditions: Sa 25923
Description: (§1) The antibacterial activity of the obtained thiosemicarbazides and hydrazide–hydrazones was determined by evaluating their ability to inhibit microbial growth in vitro using the broth microdilution method, according to the guidelines of the European Committee on Antimicrobial Susceptibility Testing (EUCAST). The method involved the preparation of microbial suspensions with a standardized density of 0.5 on the McFarland scale (equivalent to 1.5 × 10^8 colony-forming units/mL for bacteria and […] for fungi). A solution of the test substances was then prepared (initial concentration 1000 µg/mL, diluted in sterile Mueller-Hinton broth for bacteria or Mueller-Hinton with 2% glucose for fungi). The test was carried out in 96-well polystyrene flat-bottom plates (Medlab, Poland) with 100 µL of appropriate sterile microbiological medium in each well. The first wells were filled with 200 µL of the test substance, diluted to the initial concentration, and then double-decreasing dilutions were made under aseptic conditions using an automatic pipette. The final step was the addition of a 10-fold diluted microbial suspension of 2 µL. At the same time, the following controls were included: (a) medium control (100 µL of sterile medium without microorganisms added), (b) microbial viability control, (c) test substance control (dilutions without added micro-organisms), (d) positive control of the drug used in the clinic. The plates thus prepared were incubated for 18 ± 2 h at 35 ± 2 °C under conditions optimal for the growth of the test microorganisms. After incubation, the spectrophotometric absorbance at 570 nm in each well of the plate was read. The aim of this part of the study was to determine two parameters: the minimum inhibitory concentration (MIC) and the minimum bactericidal or fungicidal concentration (MBC/MFC) of the test compound. […] The MBC value was determined by adding 5 µL of the contents of each well of the plate to solid sterile MHA or MHA + 2%glc medium for bacteria and fungi, respectively. The area on the plate where 99.9% inhibition of microbial growth was observed indicated the lethal concentration. In addition, the quotient MBC(MFC)/MIC could be determined to assess the nature of the activity of the test substance. If MBC(MFC)/MIC was <4, the test substance was bactericidal/fungicidal, whereas if MBC(MFC)/MIC was ≥4, it was bacteriostatic/fungistatic. Amoxicillin (Glentham Life Sciences, USA) and nystatin (Glentham Life Sciences, USA) were used as the controls for this assay.
(§2) The test was performed either on bacteria, comprising: Gram-positive (Staphylococcus aureus ATCC 25923, Staphylococcus aureus ATCC 6538, Staphylococcus aureus ATCC 43300 methicillin-resistant MRSA, Staphylococcus epidermidis ATCC 12228, Micrococcus luteus ATCC 10240, Bacillus subtilis ATCC 6633, Bacillus cereus ATCC 10876) and Gram-negative (Escherichia coli ATCC 25922, Pseudomonas aeruginosa ATCC 27853, Proteus mirabilis ATCC 12453, Klebsiella pneumoniae ATCC 13883) or yeast (Candida parapsilosis ATCC 22019, Candida glabrata ATCC 90030, Candida krusei ATCC 14243, Candida glabrata ATCC 15126, Candida tropicalis ATCC 1369, Candida auris CDC B11903, Candida lusitaniae ATCC 3449) reference strains from the American Type Culture Collection (ATCC) or the Centers for Disease Control and Prevention (CDC).

[2] = tested on: Staphylococcus aureus ATCC 6538; assay: Broth microdilution, S. aureus ATCC 6538; conditions: Sa 6538
Description: as §1, §2

[3] = tested on: Staphylococcus aureus ATCC 43300 methicillin-resistant MRSA; assay: Broth microdilution, S. aureus ATCC 43300 MRSA; conditions: Sa 43300 MRSA
Description: as §1, §2

[4] = tested on: Staphylococcus epidermidis ATCC 12228; assay: Broth microdilution, S. epidermidis ATCC 12228; conditions: Se 12228; for MBC/MIC Ratio: <4 bactericidal, ≥4 bacteriostatic
Description: as §1, §2

[5] = tested on: Micrococcus luteus ATCC 10240; assay: Broth microdilution, M. luteus ATCC 10240; conditions: Ml 10240; for MBC/MIC Ratio: <4 bactericidal, ≥4 bacteriostatic
Description: as §1, §2

[6] = tested on: Bacillus subtilis ATCC 6633; assay: Broth microdilution, B. subtilis ATCC 6633; conditions: Bs 6633; for MBC/MIC Ratio: <4 bactericidal, ≥4 bacteriostatic
Description: as §1, §2

[7] = tested on: Bacillus cereus ATCC 10876; assay: Broth microdilution, B. cereus ATCC 10876; conditions: Bc 10876; for MBC/MIC Ratio: <4 bactericidal, ≥4 bacteriostatic
Description: as §1, §2

[8] = tested on: Candida parapsilosis ATCC 22019; assay: Broth microdilution, C. parapsilosis ATCC 22019; conditions: Cp 22019
Description: as §1, §2

[9] = tested on: Candida glabrata ATCC 90030; assay: Broth microdilution, C. glabrata ATCC 90030; conditions: Cg 90030
Description: as §1, §2

[10] = tested on: Candida krusei ATCC 14243; assay: Broth microdilution, C. krusei ATCC 14243; conditions: Ck 14243
Description: as §1, §2

[11] = tested on: Candida glabrata ATCC 15126; assay: Broth microdilution, C. glabrata ATCC 15126; conditions: Cg 15126
Description: as §1, §2

[12] = tested on: Candida tropicalis ATCC 1369; assay: Broth microdilution, C. tropicalis ATCC 1369; conditions: Ct 1369
Description: as §1, §2

Candida auris CDC B11903 = assay: Broth microdilution, C. auris CDC B11903; conditions: Ca B11903
Description: as §1, §2

[13] = tested on: Candida lusitaniae ATCC 3449; assay: Broth microdilution, C. lusitaniae ATCC 3449; conditions: Cl 3449
Description: as §1, §2

`Cn1cc([N+](=O)[O-])nc1C(=O)NNC(=S)Nc1ccccc1F` [Compound 6] was tested. Which MBC [1] did it give?
Its MBC is >1000 µg/mL.

And the MIC [1]?
The MIC was 250 µg/mL (≈ 739 µM).

And the MBC [2]?
The MBC was >1000 µg/mL.

And the MIC [2]?
Its MIC is 1000 µg/mL (≈ 2960 µM).

What about the MBC [3] of the same compound?
Its MBC is >1000 µg/mL.

What about the MIC [3] of the same compound?
Its MIC is 1000 µg/mL (≈ 2960 µM).

What about the MBC [4] of the same compound?
The MBC was 500 µg/mL (≈ 1480 µM).

And the MIC [4]?
Its MIC is 500 µg/mL (≈ 1480 µM).

What about the “MBC/MIC Ratio” value [4] of the same compound?
The value was 1.

What about the MBC [5] of the same compound?
The MBC was 250 µg/mL (≈ 739 µM).

What about the MIC [5] of the same compound?
Its MIC is 250 µg/mL (≈ 739 µM).

What about the “MBC/MIC Ratio” value [5] of the same compound?
Its value is 1.

What about the MBC [6] of the same compound?
The MBC was 500 µg/mL (≈ 1480 µM).

And the MIC [6]?
Its MIC is 250 µg/mL (≈ 739 µM).

What about the “MBC/MIC Ratio” value [6] of the same compound?
Its value is 2.

What about the MBC [7] of the same compound?
The MBC was 1000 µg/mL (≈ 2960 µM).

And the MIC [7]?
Its MIC is 500 µg/mL (≈ 1480 µM).

And the “MBC/MIC Ratio” value [7]?
Its value is 2.

And the MFC [8]?
The MFC was >1000 µg/mL.

What about the MIC [8] of the same compound?
Its MIC is 1000 µg/mL (≈ 2960 µM).

What about the MIC [9] of the same compound?
Its MIC is >1000 µg/mL.

What about the MIC [10] of the same compound?
Its MIC is >1000 µg/mL.

And the MIC [11]?
Its MIC is >1000 µg/mL.

What about the MFC [12] of the same compound?
The MFC was >1000 µg/mL.

What about the MIC [12] of the same compound?
The MIC was 250 µg/mL (≈ 739 µM).

And the MIC (Candida auris CDC B11903)?
Its MIC is >1000 µg/mL.

What about the MIC [13] of the same compound?
Its MIC is >1000 µg/mL.

What does the source list for `Cn1cc([N+](=O)[O-])nc1C(=O)NNC(=S)Nc1cccc(F)c1` [Compound 7]?
MBC [1]: >1000 µg/mL; MIC [1]: 250 µg/mL (≈ 739 µM); MBC [2]: >1000 µg/mL; MIC [2]: 500 µg/mL (≈ 1480 µM); MBC [3]: >1000 µg/mL; MIC [3]: 500 µg/mL (≈ 1480 µM); MBC [4]: >1000 µg/mL; MIC [4]: 250 µg/mL (≈ 739 µM); MBC [5]: 250 µg/mL (≈ 739 µM); MIC [5]: 250 µg/mL (≈ 739 µM); MBC/MIC Ratio [5]: 1; MBC [6]: 250 µg/mL (≈ 739 µM); MIC [6]: 125 µg/mL (≈ 369 µM); MBC/MIC Ratio [6]: 2; MBC [7]: 500 µg/mL (≈ 1480 µM); MIC [7]: 500 µg/mL (≈ 1480 µM); MBC/MIC Ratio [7]: 1; MIC [8]: >1000 µg/mL; MIC [9]: >1000 µg/mL; MIC [10]: >1000 µg/mL; MIC [11]: >1000 µg/mL; MFC [12]: >1000 µg/mL; MIC [12]: 250 µg/mL (≈ 739 µM); MIC (Candida auris CDC B11903): >1000 µg/mL; MIC [13]: >1000 µg/mL

Which results are given for `Cn1cc([N+](=O)[O-])nc1C(=O)NNC(=S)Nc1ccc(F)cc1` [Compound 8]?
MBC [1]: >1000 µg/mL; MIC [1]: 250 µg/mL (≈ 739 µM); MIC [2]: >1000 µg/mL; MBC [3]: >1000 µg/mL; MIC [3]: 1000 µg/mL (≈ 2960 µM); MBC [4]: 500 µg/mL (≈ 1480 µM); MIC [4]: 500 µg/mL (≈ 1480 µM); MBC/MIC Ratio [4]: 1; MBC [5]: 500 µg/mL (≈ 1480 µM); MIC [5]: 250 µg/mL (≈ 739 µM); MBC/MIC Ratio [5]: 2; MBC [6]: 250 µg/mL (≈ 739 µM); MIC [6]: 250 µg/mL (≈ 739 µM); MBC/MIC Ratio [6]: 1; MBC [7]: 1000 µg/mL (≈ 2960 µM); MIC [7]: 500 µg/mL (≈ 1480 µM); MBC/MIC Ratio [7]: 2; MFC [8]: >1000 µg/mL; MIC [8]: 1000 µg/mL (≈ 2960 µM); MIC [9]: >1000 µg/mL; MIC [10]: >1000 µg/mL; MIC [11]: >1000 µg/mL; MFC [12]: >1000 µg/mL; MIC [12]: 250 µg/mL (≈ 739 µM); MIC (Candida auris CDC B11903): >1000 µg/mL; MIC [13]: >1000 µg/mL

For `C[C@@H]1[C@H](O)[C@@H](C)/C=C/C=C/CC/C=C/C=C/C=C/C=C/C(O[C@H]2O[C@H](C)[C@@H](O)[C@H](N)[C@@H]2O)CC2O[C@](O)(CC(O)C(O)CCC(O)CC(O)CC(O)CC(=O)O[C@H]1C)CC(O)C2C(=O)O` (some centres unmarked) [NYS, nystatin, reference compound], which MFC [8] is on record?
Its MFC is 12.5 µg/mL (≈ 13.5 µM).

And the MIC [8]?
The MIC was 12.5 µg/mL (≈ 13.5 µM).

What about the MFC [9] of the same compound?
The MFC was 3.125 µg/mL (≈ 3.37 µM).

What about the MIC [9] of the same compound?
The MIC was 1.56 µg/mL (≈ 1.68 µM).

What about the MFC [10] of the same compound?
The MFC was 12.5 µg/mL (≈ 13.5 µM).

And the MIC [10]?
Its MIC is 12.5 µg/mL (≈ 13.5 µM).

What about the MFC [11] of the same compound?
The MFC was 3.125 µg/mL (≈ 3.37 µM).

And the MIC [11]?
The MIC was 1.56 µg/mL (≈ 1.68 µM).

And the MFC [12]?
Its MFC is 0.5 µg/mL (≈ 0.54 µM).

What about the MIC [12] of the same compound?
The MIC was <0.781 µg/mL.

What about the MFC (Candida auris CDC B11903) of the same compound?
Its MFC is 15.625 µg/mL (≈ 16.9 µM).

And the MIC (Candida auris CDC B11903)?
The MIC was 6.25 µg/mL (≈ 6.75 µM).

And the MFC [13]?
The MFC was 3.125 µg/mL (≈ 3.37 µM).

And the MIC [13]?
The MIC was 1.56 µg/mL (≈ 1.68 µM).
